Four molecules from article PMC9366811, “Antiviral activity of natural phenolic compounds in complex at an allosteric site of SARS-CoV-2 papain-like protease” (Communications Biology, 2022) can be followed below.

Series [1] has as its system SARS-CoV-2. Description: microbe, parasite or virus in culture. The format is cell-based. The settings on record: Vero cells, MOI 0.01, 42 h, CellTiter-Glo; for IC50: read-out: IC50 CPE inhibition. (In general: In ATP-based viability assays light output follows the ATP content of the culture.)
Series [2] concerns the target T1, SARS-CoV-2 PLpro (Severe acute respiratory syndrome coronavirus 2, UniProt P0DTC1). Description: biochemical. The settings on record: for inhibition at 50 µM: compound at 50 µM, 10 nM PLpro, ISG15-Rhodamine 100 nM, preincubation 6 h at 10 °C, read-out: % Inhibition of PLpro deISGylation activity.
For series [3], the target named is T1, SARS-CoV-2 PLpro. Type of series: biochemical. The settings on record: compound at 50 µM, compared with ISG15-Rhodamine substrate.
Series [4] deals with SARS-CoV-2. Description: Antiviral activity assay in Vero cells, viral RNA by qRT-PCR. The format is cell-based. The settings on record: Severe acute respiratory syndrome coronavirus 2, MOI 0.01, qRT-PCR, 42 h post-infection, read-out: IC50 Antiviral cell assay (reduction of viral RNA replication). (Real-time PCR tracks product formation cycle by cycle.)
Series [5] has as its system Vero cell lines (ATCC CCL-81).
The target in series [6] is PLpro (Severe acute respiratory syndrome coronavirus 2, UniProt P0DTC1). Description: nanoDSF fluorescence titration (quenching of PLpro fluorescence). Type of series: binding, SARS-CoV-2. On the technique in general: In DSF a fluorescence change marks the thermal transition of the protein.
Series [7] has as its target SARS-CoV-2 main protease (Mpro) (Severe acute respiratory syndrome coronavirus 2, UniProt P0DTC1). Description: FRET-based Mpro inhibition assay. Type of series: biochemical. The settings on record: substrate 2-AbzSAVLQSGTyr(3-NO2)R-OH, incubated with Mpro for 30 minutes. The method, then: Activity assays were performed for SARS-CoV-2 Mpro[16],[71] utilizing the three natural compounds, aiming to characterize the specificity of the compounds towards PLpro. The assays were performed applying a total reaction volume of 50 µL using non-binding, black bottom, 96-well plates and the relative fluorescence was measured utilizing a Tecan Infinite M plus plate reader (Tecan Group Ltd, Switzerland) using optical settings specific for the substrate 2-Abz[…]yr(3-NO2)R-OH (Biotrend). The corresponding fluorophore has an excitation and emission at 355 nm and 460 nm wavelength respectively. The substrate and Mpro were used at a final concentration of 5 µM and 75 nM respectively. The known Mpro inhibitor (GC-376) was used as positive control throughout the assay. SARS-CoV-2 Mpro and substrates were diluted in assay buffer (20 mM Tris-HCl pH 7.3, 150 mM NaCl, 1 mM EDTA, 1 mM DTT) and reactions were initiated upon addition of Mpro in a final volume of 50 µL and were measured at 25 °C. The three compounds were incubated prior to the experiments with Mpro at 10 °C for 6 h, as accomplished also for the PLpro activity assays. Fluorescence values were measured for 15 min with one read out per minute. […]
311 with Mpro for 6h at 10 °C and fluorescence was measured for 15 min with read - […]
318 were incubated with the Mpro for 30 minutes. The IC50 values were calculated by […]

The structures appear in SMILES notation. Where two headings read alike, the source gives them in different places.

Broadly, the IC50 is the concentration that gives 50% inhibition. One may read the inhibition as the relative decrease from the control value, in per cent. As a reminder, the Kd is a measure of binding affinity in units of concentration.

For the molecule `OCCc1ccc(O)cc1` [YRL, 4-(2-hydroxyethyl)phenol], in series [1], the “IC50 CPE inhibition” value is recorded as “unable to fit a sigmoidal curve”. Besides, in series [2], the 50% inhibitory concentration (IC50) worked out at 6.68 ± 1.2 µM and the inhibition at 50 µM is around 70%. In addition, the “inhibition of PLpro with Ub-Rhodamine as substrate” value in series [3] is on record as “not as pronounced”. Further, the IC50 in series [4] worked out at 1 µM. Also, the “cell toxicity at 100 µM” value in series [5] is “no associated cell toxicity”.

Regarding `COC(=O)c1ccc(O)c(O)c1` [HE9, methyl 3,4-dihydroxybenzoate], the dissociation constant (Kd) in series [6] (nanoDSF fluorescence titration, 50 μM PLpro, 0.5% DMSO, depending on the emission wavelength used (330/350 nm), read-out: Kd) stood at 1000 µM. Also, the IC50 in series [1] (Severe acute respiratory syndrome coronavirus 2, Vero, 42 h) is 10.4 µM; in series [1] it was 10 µM; in series [4], 0.13 µM. Also, the “cell toxicity at 100 µM” value in series [5] is on record as “no associated cell toxicity”.

In series [7], `CC(C)C[C@H](NC(=O)OCc1ccccc1)C(=O)N[C@@H](CC1CCNC1=O)C(O)S(=O)(=O)O` (some centres unmarked) [GC-376] returned an IC50 of 1.1 µM.

Turning to `O=Cc1ccc(O)cc1` [HBA, 4-hydroxybenzaldehyde], in series [6], the Kd is around 400 µM. In addition, the “IC50 CPE inhibition” value in series [1] is recorded as “unable to fit a sigmoidal curve”. Moreover, in series [2], the concentration for half-maximal inhibition (IC50) worked out at 3.99 ± 1.33 µM and the inhibition at 50 µM is around 73%. In series [3], the “inhibition of PLpro with Ub-Rhodamine as substrate” value was “not as pronounced”.
